Assay results as given in publication PMC9359912, “Pathogenic bacteria remodel central metabolic enzyme to build a cyclopropanol warhead” (Nature Chemistry, 2022).

Biological target: T1, BurG (Burkholderia thailandensis, UniProt Q2T3G7)
T1 construct: gene ilvC-2

For `NC(=O)C1=CN([C@@H]2O[C@H](COP(=O)(O)OP(=O)(O)OC[C@H]3O[C@@H](n4cnc5c(N)ncnc54)[C@H](O)[C@@H]3O)[C@@H](O)[C@H]2O)C=CC1` [NADH], the “X-ray co-crystal structure, 2.05 Å” value was “complexed between the two magnesium atoms and NADH in the active site”.
